Assay [1] has as its target T1, High affinity choline transporter 1 (Homo sapiens, UniProt Q9GZV3).
T1 sequence (Q9GZV3 whole entry): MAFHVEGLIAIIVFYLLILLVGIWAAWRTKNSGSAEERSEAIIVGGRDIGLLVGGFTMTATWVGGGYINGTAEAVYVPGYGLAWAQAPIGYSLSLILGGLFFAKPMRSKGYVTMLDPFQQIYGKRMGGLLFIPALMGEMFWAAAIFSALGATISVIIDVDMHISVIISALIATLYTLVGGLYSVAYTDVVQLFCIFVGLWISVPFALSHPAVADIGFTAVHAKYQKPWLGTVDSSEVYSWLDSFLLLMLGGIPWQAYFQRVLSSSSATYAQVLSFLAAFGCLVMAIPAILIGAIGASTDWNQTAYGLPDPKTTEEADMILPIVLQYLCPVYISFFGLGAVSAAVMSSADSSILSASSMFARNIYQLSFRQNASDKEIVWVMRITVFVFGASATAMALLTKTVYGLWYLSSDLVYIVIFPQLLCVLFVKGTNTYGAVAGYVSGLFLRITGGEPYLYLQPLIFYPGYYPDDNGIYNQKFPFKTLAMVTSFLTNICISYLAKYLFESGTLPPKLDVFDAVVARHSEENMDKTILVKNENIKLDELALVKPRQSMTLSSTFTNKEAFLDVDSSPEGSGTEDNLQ
Nature of the assay: CHT inhibitors, dose response, cell-based, 5-point CRC, membrane potential dye (AID 504840). It counts as functional.

The nature of assay [2]: inhibitors of firefly luciferase expression or activity, dose response, H4 neuroglioma cells, luminescence (AID 1990). The class given is functional, cell-based.
Assay [3] can be described thus: Luminescence Cell-Based Dose Response HTS to Identify Inhibitors of 5'UTR Stem-Loop Driven Prion Protein mRNA Translation in H4 Neuroglioblastoma Cells. [Related pubchem assays: 1827 (Project Summary), 1813 (Primary HTS)]. The class given is functional.
A short description of assay [4]: inhibitors of SNCA 5'UTR-driven reporter translation, confirmation, H4 neuroglioma cells, luminescence (AID 1988). It counts as functional, cell-based.
A short description of assay [5]: cells. The class given is functional, cell-based.
The nature of assay [6]: cells. The class given is functional, cell-based. This is another data set of the same source.
The target in assay [7] is T2, RNA-binding protein pos-1 (Caenorhabditis elegans, UniProt G5EF15).
T2 sequence (G5EF15 whole entry): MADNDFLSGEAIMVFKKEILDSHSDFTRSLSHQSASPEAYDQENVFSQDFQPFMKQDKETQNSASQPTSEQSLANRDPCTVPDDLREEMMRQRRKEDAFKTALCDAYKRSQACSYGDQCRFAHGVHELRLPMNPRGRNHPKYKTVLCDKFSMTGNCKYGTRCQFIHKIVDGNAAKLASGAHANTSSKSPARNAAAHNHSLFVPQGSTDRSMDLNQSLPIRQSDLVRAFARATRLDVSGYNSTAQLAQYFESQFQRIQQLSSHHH
Nature of the assay: inhibitors of POS-1/mex-3 RNA binding, dose response, biochemical, fluorescence polarization (AID 1964).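 Note: purified POS-1 fused to maltose binding protein made in E. coli; potency of compounds blocking POS-1 binding to fluorescent RNA.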 Background: Fluorescence polarisation rises when a labelled molecule tumbles more slowly, as on binding a larger partner.

Assay [8] concerns the target T3, Zinc finger protein mex-5 (Caenorhabditis elegans, UniProt Q9XUB2).
T3 sequence (Q9XUB2 whole entry): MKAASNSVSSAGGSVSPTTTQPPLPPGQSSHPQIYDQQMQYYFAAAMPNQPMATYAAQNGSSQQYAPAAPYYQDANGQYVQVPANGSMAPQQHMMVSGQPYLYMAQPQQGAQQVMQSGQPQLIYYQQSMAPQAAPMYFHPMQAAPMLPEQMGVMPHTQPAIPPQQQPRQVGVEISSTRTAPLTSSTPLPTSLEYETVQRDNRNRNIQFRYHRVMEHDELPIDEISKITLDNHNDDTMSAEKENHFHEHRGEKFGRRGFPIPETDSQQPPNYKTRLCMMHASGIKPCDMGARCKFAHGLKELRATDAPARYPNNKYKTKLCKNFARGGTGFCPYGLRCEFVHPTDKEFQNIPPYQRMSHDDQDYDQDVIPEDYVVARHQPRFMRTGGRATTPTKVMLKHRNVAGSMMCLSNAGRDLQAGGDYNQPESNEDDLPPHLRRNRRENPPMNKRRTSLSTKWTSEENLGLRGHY
Nature of the assay: MEX-5/TCR-2 RNA interaction inhibitors, dose response, biochemical, C. elegans, fluorescence polarization (AID 1960).

Assay [9] can be described thus: Luminescence Cell-Based Dose Retest to Confirm Inhibitors of Cancer Stem Cells. [Related pubchem assays (depositor defined):AID2717, AID2721]. The note with it: Homo sapiens. The class given is functional.
Another assay concerns the target T4, Cytochrome P450 1A2 (Homo sapiens, UniProt P05177).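 Note: PubChem cytochrome P450 panel assay, CYP1A2 panel member.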
T4 sequence (P05177 whole entry): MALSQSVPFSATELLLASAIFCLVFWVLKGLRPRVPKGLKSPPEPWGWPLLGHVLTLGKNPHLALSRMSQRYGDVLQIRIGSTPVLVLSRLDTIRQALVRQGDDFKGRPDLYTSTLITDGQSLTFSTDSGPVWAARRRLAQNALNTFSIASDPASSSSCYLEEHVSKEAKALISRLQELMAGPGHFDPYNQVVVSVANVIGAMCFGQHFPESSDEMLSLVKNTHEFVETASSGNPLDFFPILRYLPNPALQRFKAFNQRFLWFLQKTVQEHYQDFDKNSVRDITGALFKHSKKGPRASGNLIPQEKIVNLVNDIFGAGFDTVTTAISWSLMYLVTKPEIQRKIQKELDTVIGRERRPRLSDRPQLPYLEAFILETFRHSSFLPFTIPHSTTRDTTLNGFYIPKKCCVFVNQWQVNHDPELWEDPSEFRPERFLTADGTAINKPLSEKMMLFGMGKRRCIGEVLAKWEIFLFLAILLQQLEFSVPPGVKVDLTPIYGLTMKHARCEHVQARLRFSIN

Assay [10] is described as follows: Shn3 3'UTR reporter inhibitors, dose response, cell-based, Clone20 osteoblasts, firefly luciferase, cherry-picked (AID 624132).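 Note: firefly luciferase luminescence from reporter carrying the Shn3 3'UTR in osteoblasts.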 The class given is functional.
Assay [11] can be described thus: HepG2 cell cytotoxicity, dose response, cytotoxicity control for Shn3 inhibitor project, CellTiter-Glo, cherry-picked (AID 624134). The class given is functional, cell-based.
Assay [12] can be described thus: control 3'UTR Renilla luciferase suppression, dose response, counter-screen for Shn3 inhibitor project, cell-based, Clone20-Shn3RL, cherry-picked (AID 624133). It counts as functional. Background: A counterscreen serves to expose hits that act by an unwanted route or on another target.
The target in assay [13] is T5, Fatty acid synthase (Homo sapiens, UniProt P49327). Nature of the assay: FAS thioesterase domain inhibitors, dose response, biochemical, endpoint fluorescence intensity, uHTS hits (AID 624327).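 Note: fluorescence from hydrolysis of an O-methyl fluorescein acyl ester substrate by the enzyme.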 The class given is functional.
T5 sequence (P49327 whole entry, the tested form may be a part): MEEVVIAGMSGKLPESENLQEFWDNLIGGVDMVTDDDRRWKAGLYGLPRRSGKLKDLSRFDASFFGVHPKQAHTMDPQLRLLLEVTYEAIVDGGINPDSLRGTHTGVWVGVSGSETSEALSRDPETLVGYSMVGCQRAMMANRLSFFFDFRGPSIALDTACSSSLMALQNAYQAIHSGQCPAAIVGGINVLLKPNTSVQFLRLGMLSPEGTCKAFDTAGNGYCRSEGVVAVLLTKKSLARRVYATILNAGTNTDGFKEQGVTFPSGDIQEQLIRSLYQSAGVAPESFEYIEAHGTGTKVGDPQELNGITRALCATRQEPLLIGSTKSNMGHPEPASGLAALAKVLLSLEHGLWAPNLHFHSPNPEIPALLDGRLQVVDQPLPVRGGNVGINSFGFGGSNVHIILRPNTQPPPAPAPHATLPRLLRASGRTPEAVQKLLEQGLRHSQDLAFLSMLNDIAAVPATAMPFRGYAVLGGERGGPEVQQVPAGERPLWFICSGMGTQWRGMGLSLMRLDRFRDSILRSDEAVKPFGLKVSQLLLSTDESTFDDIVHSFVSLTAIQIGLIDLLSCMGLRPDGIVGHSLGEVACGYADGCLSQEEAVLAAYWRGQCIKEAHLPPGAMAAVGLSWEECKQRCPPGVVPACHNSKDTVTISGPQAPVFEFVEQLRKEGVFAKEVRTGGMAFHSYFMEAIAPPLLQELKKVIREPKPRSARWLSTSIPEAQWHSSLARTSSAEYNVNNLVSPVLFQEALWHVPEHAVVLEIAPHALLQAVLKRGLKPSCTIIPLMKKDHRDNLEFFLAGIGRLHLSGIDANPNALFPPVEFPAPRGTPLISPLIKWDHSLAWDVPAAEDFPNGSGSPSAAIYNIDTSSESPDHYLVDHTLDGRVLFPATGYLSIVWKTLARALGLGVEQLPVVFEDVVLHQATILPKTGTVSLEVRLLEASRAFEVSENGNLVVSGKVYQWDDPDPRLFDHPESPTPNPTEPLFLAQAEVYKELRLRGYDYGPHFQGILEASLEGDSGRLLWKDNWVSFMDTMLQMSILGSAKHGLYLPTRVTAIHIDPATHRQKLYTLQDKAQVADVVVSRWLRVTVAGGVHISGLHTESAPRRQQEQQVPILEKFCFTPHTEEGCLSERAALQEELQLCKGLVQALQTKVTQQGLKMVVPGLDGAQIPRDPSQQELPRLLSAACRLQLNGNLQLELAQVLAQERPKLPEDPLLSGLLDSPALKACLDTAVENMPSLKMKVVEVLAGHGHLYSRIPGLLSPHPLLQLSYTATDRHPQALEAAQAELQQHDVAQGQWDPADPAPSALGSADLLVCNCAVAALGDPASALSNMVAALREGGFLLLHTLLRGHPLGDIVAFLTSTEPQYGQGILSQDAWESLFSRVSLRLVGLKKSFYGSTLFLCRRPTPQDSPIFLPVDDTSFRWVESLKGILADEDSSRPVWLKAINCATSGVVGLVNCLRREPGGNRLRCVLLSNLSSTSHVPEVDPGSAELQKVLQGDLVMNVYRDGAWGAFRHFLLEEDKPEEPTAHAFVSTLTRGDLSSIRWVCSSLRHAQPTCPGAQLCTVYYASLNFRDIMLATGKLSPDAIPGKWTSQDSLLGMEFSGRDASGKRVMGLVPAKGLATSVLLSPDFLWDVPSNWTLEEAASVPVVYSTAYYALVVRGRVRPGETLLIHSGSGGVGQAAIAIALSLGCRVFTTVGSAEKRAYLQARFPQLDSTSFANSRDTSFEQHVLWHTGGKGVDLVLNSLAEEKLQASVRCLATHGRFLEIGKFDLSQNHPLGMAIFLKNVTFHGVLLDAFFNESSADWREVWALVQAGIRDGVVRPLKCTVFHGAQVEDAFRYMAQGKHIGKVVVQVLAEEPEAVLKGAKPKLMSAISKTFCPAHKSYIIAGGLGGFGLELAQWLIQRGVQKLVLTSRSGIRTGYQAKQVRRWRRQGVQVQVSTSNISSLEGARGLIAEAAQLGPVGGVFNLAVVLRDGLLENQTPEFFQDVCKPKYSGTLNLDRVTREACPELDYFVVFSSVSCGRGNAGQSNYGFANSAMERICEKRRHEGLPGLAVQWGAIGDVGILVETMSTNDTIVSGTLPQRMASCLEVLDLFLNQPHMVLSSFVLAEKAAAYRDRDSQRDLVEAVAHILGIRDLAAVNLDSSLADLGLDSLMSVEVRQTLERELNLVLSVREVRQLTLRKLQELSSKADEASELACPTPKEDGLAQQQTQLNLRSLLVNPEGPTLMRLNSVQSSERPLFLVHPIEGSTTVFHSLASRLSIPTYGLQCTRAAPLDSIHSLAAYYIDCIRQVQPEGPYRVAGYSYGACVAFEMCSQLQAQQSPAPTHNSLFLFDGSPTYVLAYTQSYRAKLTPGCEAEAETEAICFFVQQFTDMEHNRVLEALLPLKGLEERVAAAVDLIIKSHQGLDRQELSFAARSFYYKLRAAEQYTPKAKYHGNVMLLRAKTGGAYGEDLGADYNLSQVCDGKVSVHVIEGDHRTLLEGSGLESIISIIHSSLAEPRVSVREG
Assay [14] has as its target T5, Fatty acid synthase. Nature of the assay: FAS thioesterase domain inhibitors, dose response, biochemical, kinetic fluorescence intensity (AID 624326).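 Note: rate of fluorescence rise from hydrolysis of a fluorogenic O-methyl fluorescein ester substrate.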 The class given is functional.
For the next assay, the target named is Paired box protein Pax-8 (Homo sapiens, UniProt Q06710). Nature of the assay: inhibitors of PAX8-driven TPO luciferase reporter, dose response, RMG-I cells, cherry-pick (AID 687027).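 Note: luciferase reporter driven by Pax8 target thyroperoxidase promoter measured by SteadyGlo luminescence.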 It counts as functional, cell-based. On the technique in general: A reporter such as luciferase makes a cellular process visible.
Paired box protein Pax-8, sequence (Q06710 whole entry): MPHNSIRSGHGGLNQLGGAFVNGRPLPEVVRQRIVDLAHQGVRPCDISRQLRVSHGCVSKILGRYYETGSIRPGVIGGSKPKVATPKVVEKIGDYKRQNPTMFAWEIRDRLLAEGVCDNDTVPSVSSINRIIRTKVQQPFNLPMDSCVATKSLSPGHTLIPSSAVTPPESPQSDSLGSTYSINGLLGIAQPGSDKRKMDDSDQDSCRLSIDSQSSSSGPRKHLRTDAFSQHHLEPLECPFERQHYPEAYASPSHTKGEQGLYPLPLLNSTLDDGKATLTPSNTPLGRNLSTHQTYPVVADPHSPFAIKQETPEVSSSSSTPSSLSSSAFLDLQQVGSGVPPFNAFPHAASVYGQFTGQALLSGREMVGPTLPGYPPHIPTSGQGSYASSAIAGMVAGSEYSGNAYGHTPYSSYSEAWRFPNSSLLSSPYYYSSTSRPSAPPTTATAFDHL
A short description of assay [15]: P. falciparum Dd2 growth inhibitors, dose response, SYBR Green, cherry-picked samples (AID 1159567). It counts as functional, cell-based.

Activity calls are given as the source filed them. Some results are limits rather than exact numbers.

As usually defined, the IC50 is the midpoint of a concentration-inhibition curve. As to `Cc1ccccc1NC(=O)c1ccc(F)c(S(=O)(=O)NCC2CCCO2)c1` (stereo unspecified), in [1], the half-inhibitory concentration (IC50) is 12.3 µM (active).

A word on the EC50: it is the concentration that produces a half-maximal response. For `O=C(Nc1ccccc1Cl)N1CCN(c2ccc3nnc(-c4ccc(F)cc4)n3n2)CC1`, the EC50 is 13.4 µM (active) in assay [2], 15.2 µM (active) in assay [3] and > 120 µM (not active) in assay [4].

As for `COc1ccc(N2CCN(C(=O)COc3ccc4c(C)c(C)c(=O)oc4c3C)CC2)cc1`, the EC50 in the assay “cells [5]” and in “cells [6]” was > 350 µM (not active) throughout.

As to `COC(=O)c1cccc(-n2c(CCC(=O)O)ccc2-c2cccs2)c1`, the EC50 in [7] and in [8] was > 300 µM (not active) in each case.

`CC(C)(C)c1ccc(/C=C2\Oc3cc(O)ccc3C2=O)cc1`: the EC50 in assay [7] is 31.4 µM (active); in assay [8], 28.8 µM (active).

As to `Cc1cc(C(=O)Nc2ccc3c(c2)OCCO3)ccc1[N+](=O)[O-]`, in [3], the EC50 was 13.7 µM (active).

In the case of `FC(F)(F)c1ccc2c(c1)C1C=CCC1C(c1ccncc1)N2` (stereo unspecified), the EC50 in assay [7] and in assay [8] was > 300 µM (not active) each time.

As usually defined, the AC50 is the concentration at which the activity in the assay is half-maximal. Consider `COc1cc(-c2noc(C)c2C#Cc2ccccn2)cc(OC)c1OC`, for which the results for the EC50 in [2], in assay [3] and in [4] were 9.32 µM (active), > 120 µM (not active) and 0.25 µM (active), respectively. The AC50 in assay [9] is 0.394 µM (active).

Regarding `COc1ccc2c(c1)CCc1cc(C(=O)N3CCN(c4ccc(N5CCOCC5)nn4)CC3)sc1-2`, the EC50 is 13.6 µM (active) in [2], > 120 µM (not active) in assay [3] and > 120 µM (not active) in assay [4].

Regarding `COc1ccc(-c2cc3nc(C)c(CCC(=O)NC(C)CCc4ccco4)c(C)n3n2)c(OC)c1` (stereo unspecified), the concentration for a half-maximal effect (EC50) in assay [2], in [3] and in assay [4] was > 120 µM (not active) throughout.

As for `O=S(=O)(NCc1csc(-c2cccs2)n1)c1cccc(C(F)(F)F)c1`, the IC50 in [1] was 14.5 µM (active).

For `O=C(O)c1cccnc1SCc1ccccc1Cl`, the concentration for a half-maximal effect (EC50) in the assay “cells [5]” and in “cells [6]” was > 350 µM (not active) throughout.

For `Cc1ccccc1NC(=O)CN(C)S(=O)(=O)c1ccc(-c2ccc(O)nn2)s1`, the concentration for a half-maximal effect (EC50) in “cells [5]” and in “cells [6]” was > 350 µM (not active) throughout.

Turning to `COc1ccc(CCNc2nncc(O)n2)cc1OC`, the concentration giving a half-maximal response (EC50) in the assay “cells [5]” and in “cells [6]” was > 350 µM (not active) throughout.

On to `c1ccc(OCc2nc(-c3ccncc3)no2)cc1`, for which the EC50 in “cells [5]” and in “cells [6]” was > 350 µM (not active) in each case.

On to `CCCCCCCC1CC(=O)C=C(C)C1C(=O)OCC` (stereo unspecified), for which the EC50 in “cells [5]” and in the assay “cells [6]” was > 350 µM (not active) in each case.

Take `Cc1ccc(C2=NS(=O)(=O)N(C)C(C(=O)NC3CCCC3)=C2)cc1`: the EC50 in “cells [5]” and in “cells [6]” was > 350 µM (not active) each time.

Regarding `COC(=O)c1c(C)n(Cc2ccccc2)c2ccc(O)cc12`, the EC50 in [2], in [3] and in [4] was > 120 µM (not active) each time.

As to `O=C(O)c1cccc(N2CCCC2=O)c1`, the EC50 in the assay “cells [5]” and in the assay “cells [6]” was > 350 µM (not active) throughout. At Cytochrome P450 1A2, the AC50 was 14.1 µM (inconclusive).

For `CCOC(=O)c1c(NC(=O)CN2C(=O)NC3(CCC(C)CC3)C2=O)sc(C)c1-c1ccc(C)cc1` (stereo unspecified), the results for the EC50 in “cells [5]” and in the assay “cells [6]” were > 350 µM (not active) and 49.6 µM (active), respectively.

For the molecule `c1coc(-c2nnc3n2C2(CCCC2)Cc2ccccc2-3)c1`, the EC50 in assay [2], in [3] and in assay [4] was > 120 µM (not active) in each case.

On to `O=C1NC(=O)N(CCc2ccc(F)cc2)C(=O)/C1=C/NCCCn1ccnc1`, for which the concentration giving a half-maximal response (EC50) in assay [7] and in assay [8] was > 300 µM (not active) throughout.

As for `N#CC1=C(N)OC2=C(C(=O)CCC2)C1c1ccc(OC(=O)N2CCOCC2)cc1` (stereo unspecified), the half-maximal effective concentration (EC50) in assay [7] and in assay [8] was > 300 µM (not active) throughout.

Turning to `C=C1CC(COc2ccc3c(C)c(Cl)c(=O)oc3c2)(c2ccccc2)OC1=O` (stereo unspecified), the AC50 is 4.82 µM (active) in [10], 13.2 µM (active) in assay [11], 9.25 µM (active) in assay [12] and 5.9 µM (active) at Paired box protein Pax-8. The IC50 on Fatty acid synthase [13] is 10.5 µM (active); on Fatty acid synthase [14] it was 12 µM (active).

With `O=C(Cn1ncc2c3ccccc3n(Cc3ccccc3)c2c1=O)NCCCN1CCCC1`, the IC50 in [1] is 13.2 µM (active).

Regarding `CCCN(CC(=O)Nc1ccc(F)c(F)c1F)C(=O)Cn1c(=O)cnc2ccccc21`, in assay [1], the IC50 is 12.3 µM (active).

For the molecule `Cc1cccn2c(=O)c3cc(C#N)/c(=N\C(=O)c4cccs4)n(CCCOC(C)C)c3nc12`, the EC50 in assay [7] was 141 µM (inconclusive); in assay [8], > 300 µM (not active).

With `C/C(=N\NC(=O)c1nnn(-c2nonc2N)c1-c1cccs1)c1cccc(O)c1`, the 50% effective concentration (EC50) in assay [7] and in assay [8] was > 300 µM (not active) in each case.

In the case of `O=C(c1ccccn1)N1CC[C@H]2[C@H](CO)Nc3ccc(-c4ccccc4)cc3[C@H]21`, in assay [15], the AC50 is 12.4 µM (active).

For the molecule `C[C@H]1CN([C@@H](C)CO)C(=O)c2ccccc2-c2ccccc2CO[C@H]1CN(C)Cc1cccc(C(F)(F)F)c1`, the AC50 in assay [15] was 4.48 µM (active).

On to `COc1ccc2c3c(n(C)c2c1)[C@@H](CO)N(CC1CCCCC1)CC31CCN(C(=O)CN(C)C)CC1`, for which the AC50 in assay [15] is 5.49 µM (active).

The values above are taken from ChEMBL document CHEMBL1201862, “PubChem BioAssay data set” (2004).
